Results: ChEMBL document CHEMBL1142910, “Enzymatic and cellular study of a serotonin N-acetyltransferase phosphopantetheine-based prodrug” (2007)

How the values were obtained:
[1] = target: Serotonin N-acetyltransferase (Rattus norvegicus) (UniProt Q64666); test: Inhibition of norepinephrine-stimulated AANAT activity assessed per 10^5 cells in rat pinealocytes at 50 uM; type: cell-based
[2] = Inhibition of norepinephrine-stimulated melatonin production assessed per 10^5 cells in rat pinealocytes at 50 uM by radioimmunoassay; type: functional
[3] = target: Serotonin N-acetyltransferase (Rattus norvegicus) (UniProt Q64666); test: Activity of AANAT assessed as conversion of bis-pivaloyloxymethylene-tryptamine-phosphopantetheine to tryptamine phosphopantetheine in rat pinealocytes after 60 mins; type: cell-based
[4] = Inhibition of norepinephrine-stimulated melatonin production assessed per 10^5 cells in rat pinealocytes at 10 uM by radioimmunoassay; type: functional
[5] = target: Serotonin N-acetyltransferase (Rattus norvegicus) (UniProt Q64666); test: Activity of AANAT assessed as conversion of bis-pivaloyloxymethylene-tryptamine-phosphopantetheine to tryptamine phosphopantetheine in rat pinealocytes at […]; type: cell-based; conditions: TDE = time-dependent effect
[6] = target: Serotonin N-acetyltransferase (Rattus norvegicus) (UniProt Q64666); test: Inhibition of norepinephrine-stimulated AANAT activity assessed per 10^5 cells in rat pinealocytes at 10 uM; type: cell-based

Sequence of Serotonin N-acetyltransferase (Rattus norvegicus) (Q64666 whole entry): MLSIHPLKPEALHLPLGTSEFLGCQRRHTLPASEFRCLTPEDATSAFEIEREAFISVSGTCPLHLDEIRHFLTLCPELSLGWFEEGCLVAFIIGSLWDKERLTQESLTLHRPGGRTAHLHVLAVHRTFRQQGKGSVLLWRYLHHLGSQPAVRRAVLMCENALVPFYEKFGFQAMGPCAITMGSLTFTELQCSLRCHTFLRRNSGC

Activity [1]: 1.6 nmol/h
Activity [3]: 40%
Activity [5]: tde
Activity [6]: 2.2 nmol/h
Compound: CC(C)(C)C(=O)OCOP(=O)(OCOC(=O)C(C)(C)C)OCC(C)(C)[C@@H](O)C(=O)NCCC(=O)NCCSCC(=O)NCCc1c[nH]c2ccccc12
Inhibition [2]: 5.7 pmol
Inhibition [4]: 9 pmol
